The values that follow come from patent US11666533B2, “Emulsion formulations of multikinase inhibitors” (Cloudbreak Therapeutics, LLC, priority 2018, dated 2023).

In brackets after ≈: the same amount, converted by molar mass.

Series [1] in a line: Solubilizer screen for nintedanib (Example 3). The note with it: for pH: pH of filtrate. The format is physicochemical. The protocol:
Tare 1.5 mL Eppendorf tube 2. […] Add solubilizer and record weight 4. Add water pH 5 (except F3 & F4) and record weight 5. Beadbeater mix for 120 seconds […] Place on rotating mixer for overnight at ambient temperature 7. Filter through 0.2 μm SPIN-X centrifuge filter 8. Measure pH of filtrate 9. Assay filtrate using CBT-001 standard solution

Series [2] can be described thus: Solubility of nintedanib in a representative emulsion system (F70). It is filed as physicochemical. The note with it: aqueous with cosolvent or surfactant or cyclodextrin; emulsion system: castor oil 1, polysorbate 80 1, polyoxyl-35 castor oil 2, water 95, none in Table 6. An excerpt:
Various emulsion systems were identified for investigation based on the solubilizer results.

Take `COC(=O)c1ccc2c(c1)NC(=O)/C2=C(\Nc1ccc(N(C)C(=O)CN2CCN(C)CC2)cc1)c1ccccc1` [nintedanib]: the pH is on record as 5.6 in series [1] (solubilizer BZA); 5.6 in series [1] (solubilizer BZK); 6.1 in series [1] (solubilizer EtOH); 5.6 in series [1] (solubilizer PEG 400); 6.0 in series [1] (solubilizer PEG 8000); 6.0 in series [1] (solubilizer PG). Moreover, the pH in series [1] (solubilizer PLXMR 188) stood at 6.5; in series [1] (solubilizer PLXMR 407), 6.3; in series [1] (solubilizer polysorbate 20) it was 6.6; in series [1] (solubilizer polysorbate 80) it was 6.7. In addition, the Nintedanib solubility in series [1] (solubilizer BZA (1% benzyl alcohol in water, F-1)) worked out at 0.01 mg/g; in series [1] (solubilizer BZK (1% in water, F-5)) it was 0.20 mg/g; in series [1] (solubilizer Castor oil (99.5%, F-3)), 0.37 mg/g; in series [1] (solubilizer EtOH (1% ethanol in water, F-2)), 0.01 mg/g; in series [1] (solubilizer Mineral oil (99.5%, F-4)), 0.00 mg/g; in series [1] (solubilizer PEG 400 (5% in water, F-10)), 0.17 mg/g. For the same compound, the Nintedanib solubility in series [1] (solubilizer PEG 8000 (2% in water, F-11)) came out at 0.01 mg/g; in series [1] (solubilizer PG (1% propylene glycol in water, F-12)), 0.01 mg/g; in series [1] (solubilizer PLXMR 188 (1% Poloxamer 188 in water, F-8)), 0.01 mg/g; in series [1] (solubilizer PLXMR 407 (1% Poloxamer 407 in water, F-9)), 0.01 mg/g; in series [1] (solubilizer polysorbate 20 (1% in water, F-6)), 0.06 mg/g; in series [1] (solubilizer polysorbate 80 (1% in water, F-7)), 0.25 mg/g. Besides, in series [2], the solubility is 3000 to 5000 µg/mL (≈ 5.56 to 9.27 mM).

A word on the solubility: it is the concentration that dissolves in the medium under given conditions. A low value points to little dissolved substance.
